From PMC5794489 (Biochemical pharmacology, 2017)
Entries after “also recorded” stand apart in the source; their conditions may differ. *1 amine or outer side, *2 acyl side, *3 side chain or, on linkers, in order; H or OH if unused. Where a SMILES comes first, the peptide text is derived from it. [ ]: non-standard residue; d: D form. X1 = O=C([C@H]1CCC[C@@H]1N[*:1])[*:2]; X2 = O=C([C@H]1CNC[C@@H]1N[*:1])[*:2]; Aib = CC(C)(N)C(=O)O

What was measured:
human GLP-1R [1] = test: Stimulus bias, operational model of agonism, Δlog; format: cell-based; details: bias relative to GLP-1; FlpInCHO; mean ± SEM, three to four experiments
human GLP-1R [2] = target: T1, human GLP-1R (Homo sapiens, UniProt P43220); test: Intracellular calcium mobilization; format: cell-based; details: for Emax: read-out: iCa2+ Emax
T1 sequence (P43220 24-463): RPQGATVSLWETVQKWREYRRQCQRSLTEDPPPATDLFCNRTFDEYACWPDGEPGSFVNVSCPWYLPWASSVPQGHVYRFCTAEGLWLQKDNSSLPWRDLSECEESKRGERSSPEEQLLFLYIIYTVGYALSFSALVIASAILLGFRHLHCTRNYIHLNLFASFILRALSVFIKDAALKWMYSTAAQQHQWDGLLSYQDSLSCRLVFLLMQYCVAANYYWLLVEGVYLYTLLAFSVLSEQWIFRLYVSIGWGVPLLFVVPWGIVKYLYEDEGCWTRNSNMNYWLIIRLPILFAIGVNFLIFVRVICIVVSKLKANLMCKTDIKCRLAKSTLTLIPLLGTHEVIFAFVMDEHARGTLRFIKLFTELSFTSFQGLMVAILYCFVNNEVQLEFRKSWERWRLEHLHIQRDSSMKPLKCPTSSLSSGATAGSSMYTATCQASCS

human GLP-1R [3] = target: T1, human GLP-1R; test: β-Arrestin-2 recruitment BRET assay; details: for Emax: read-out: β-Arrestin-2 Emax; for β-arrestin-2 recruitment, result in words: FlpInCHO BRET, native β-arrestin-2
human GLP-1R [4] = target: T1, human GLP-1R; test: β-Arrestin-1 recruitment BRET assay; details: for Emax: read-out: β-Arrestin-1 Emax
human GLP-1R [5] = target: T1, human GLP-1R; test: ERK1/2 phosphorylation; format: cell-based; details: read-out: pERK1/2 Emax
human GLP-1R [6] = target: T1, human GLP-1R; test: cAMP accumulation in GLP-1R FlpInCHO cells; format: cell-based; details: Flp-In-CHO, read-out: cAMP Emax
human GLP-1R [7] = target: T1, human GLP-1R; test: Radioligand competition binding on whole GLP-1R FlpInCHO cells; details: GLP-1R in FlpIn CHO cells
human GLP-1R [8] = details: FlpIn CHO cells; cited from earlier work

| Compound | Emax (human GLP-1R [2]) | Emax (human GLP-1R [5]) | Emax (human GLP-1R [6]) | β-arrestin-2 recruitment, result in words (human GLP-1R [3]) | Δlog(τ/KA) Ca2+ vs cAMP (human GLP-1R [1]) | Δlog(τ/KA) pERK1/2 vs cAMP (human GLP-1R [1]) | Δlog(τ/KA) βArr1 vs pERK1/2 (human GLP-1R [1]) | Δlog(τ/KA) βArr2 vs cAMP (human GLP-1R [1]) | Δlog(τ/KA) βArr2 vs pERK1/2 (human GLP-1R [1]) | other results |
| --- | --- | --- | --- | --- | --- | --- | --- | --- | --- | --- |
| CC[C@H](C)[C@H](NC(=O)[C@H](Cc1ccccc1)NC(=O)[C@H](CCC(=O)O)NC(=O)[C@H]1CNC[C@@H]1NC(=O)[C@H](C)NC(=O)[C@H](C)NC(=O)[C@H](CCC(N)=O)NC(=O)[C@H]1CCC[C@@H]1NC(=O)[C@H](CCC(=O)O)NC(=O)[C@H](CC(C)C)NC(=O)[C@H](Cc1ccc(O)cc1)NC(=O)[C@H]1CCC[C@@H]1NC(=O)[C@H](CO)NC(=O)[C@@H](NC(=O)[C@H](CC(=O)O)NC(=O)[C@H](CO)NC(=O)[C@@H](NC(=O)[C@H](Cc1ccccc1)NC(=O)[C@@H](NC(=O)CNC(=O)[C@H](CCC(=O)O)NC(=O)[C@H](C)NC(=O)[C@@H](N)Cc1c[nH]cn1)[C@@H](C)O)[C@@H](C)O)C(C)C)C(=O)N[C@H]1CCC[C@@H]1C(=O)N[C@@H](Cc1c[nH]c2ccccc12)C(=O)N[C@@H](CC(C)C)C(=O)N[C@H](C(=O)N[C@H]1CNC[C@@H]1C(=O)NCC(=O)N[C@@H](CCCNC(=N)N)C(=O)NCC(N)=O)C(C)C [P3] | – | – | – | – | – | – | −0.1 ± 0.3 | 0.5 ± 0.3 | −0.6 ± 0.2 | – |
| CC[C@H](C)[C@H](NC(=O)[C@H](Cc1ccccc1)NC(=O)[C@H](CCC(=O)O)NC(=O)[C@H]1CNC[C@@H]1NC(=O)[C@H](C)NC(=O)[C@H](C)NC(=O)[C@H](CCC(N)=O)NC(=O)[C@H]1CCC[C@@H]1NC(=O)[C@H](CCC(=O)O)NC(=O)[C@H](CC(C)C)NC(=O)[C@H](Cc1ccc(O)cc1)NC(=O)[C@H]1CCC[C@@H]1NC(=O)[C@H](CO)NC(=O)C(C)(C)NC(=O)[C@H](CC(=O)O)NC(=O)[C@H](CO)NC(=O)[C@@H](NC(=O)[C@H](Cc1ccccc1)NC(=O)[C@@H](NC(=O)CNC(=O)[C@H](CCC(=O)O)NC(=O)C(C)(C)NC(=O)[C@@H](N)Cc1c[nH]cn1)[C@@H](C)O)[C@@H](C)O)C(=O)N[C@H]1CCC[C@@H]1C(=O)N[C@@H](Cc1c[nH]c2ccccc12)C(=O)N[C@@H](CC(C)C)C(=O)N[C@H](C(=O)N[C@H]1CNC[C@@H]1C(=O)NCC(=O)N[C@@H](CCCNC(=N)N)C(=O)NCC(N)=O)C(C)C [P4] (H-H[Aib]EGTFTSD[Aib]S[X1]YLE[X1]QAA[X2]EFI[X1]WLV[X2]GRG-NH2) | 90 ± 40% | 81 ± 8% | 97 ± 7% | weak β-arrestin-2 responses; also recorded: no measurable signal | −0.2 ± 0.2 | – | – | – | – | β-arrestin-1 recruitment, result in words (human GLP-1R [4]; FlpInCHO BRET): no measurable signal; further reduction in affinity relative to other α/β-peptides in this set (human GLP-1R [7]): 10 fold |
| CC[C@H](C)[C@H](NC(=O)[C@H](Cc1ccccc1)NC(=O)[C@H](CCC(=O)O)NC(=O)[C@H](CCCCN)NC(=O)[C@H](C)NC(=O)[C@H](C)NC(=O)[C@H](CCC(N)=O)NC(=O)CNC(=O)[C@H](CCC(=O)O)NC(=O)[C@H](CC(C)C)NC(=O)[C@H](Cc1ccc(O)cc1)NC(=O)[C@H](CO)NC(=O)[C@H](CO)NC(=O)C(C)(C)NC(=O)[C@H](CC(=O)O)NC(=O)[C@H](CO)NC(=O)[C@@H](NC(=O)[C@H](Cc1ccccc1)NC(=O)[C@@H](NC(=O)CNC(=O)[C@H](CCC(=O)O)NC(=O)C(C)(C)NC(=O)[C@@H](N)Cc1c[nH]cn1)[C@@H](C)O)[C@@H](C)O)C(=O)N[C@@H](C)C(=O)N[C@@H](Cc1c[nH]c2ccccc12)C(=O)N[C@@H](CC(C)C)C(=O)N[C@H](C(=O)N[C@@H](CCCCN)C(=O)NCC(=O)N[C@@H](CCCNC(=N)N)C(=O)NCC(N)=O)C(C)C [P6] | 78 ± 5% | 80 ± 7% | – | – | −0.1 ± 0.2 | 0.1 ± 0.2 | 0.5 ± 0.3 | −0.1 ± 0.2 | −0.3 ± 0.2 | Δlog(τ/KA) βArr1 vs cAMP (human GLP-1R [1]): 0.4 ± 0.1; Δlog(τ/KA) βArr2 vs Ca2+ (human GLP-1R [1]): 0.0 ± 0.2; Emax (human GLP-1R [3]): 82 ± 5%; Emax (human GLP-1R [4]): 72 ± 4% |
| exendin-4 | – | – | – | – | – | – | – | – | – | bias ERK1/2 phosphorylation over cAMP accumulation, in words (human GLP-1R [8]): does not exhibit bias toward ERK1/2 phosphorylation |
| oxyntomodulin (HSQGTFTSDYSKYLDSRRAQDFVQWLMNTKRNRNNIA; Oxyntomodulin; UniProt P01275 53-89, looked up) | – | – | – | – | – | – | – | – | – | bias ERK1/2 phosphorylation over cAMP accumulation, in words (human GLP-1R [8]): biases the GLP-1R toward ERK1/2 phosphorylation over cAMP accumulation |

More lines, main results first:

| Emax (human GLP-1R [2]) | Emax (human GLP-1R [5]) | Emax (human GLP-1R [6]) | β-arrestin-2 recruitment, result in words (human GLP-1R [3]) | Compound | Δlog(τ/KA) Ca2+ vs cAMP (human GLP-1R [1]) | Δlog(τ/KA) pERK1/2 vs cAMP (human GLP-1R [1]) | Δlog(τ/KA) βArr1 vs pERK1/2 (human GLP-1R [1]) | Δlog(τ/KA) βArr2 vs cAMP (human GLP-1R [1]) | Δlog(τ/KA) βArr2 vs pERK1/2 (human GLP-1R [1]) | other results |
| --- | --- | --- | --- | --- | --- | --- | --- | --- | --- | --- |
| 89 ± 8% | 112 ± 8% | – | – | CC[C@H](C)[C@H](NC(=O)[C@H](Cc1ccccc1)NC(=O)[C@H](CCC(=O)O)NC(=O)[C@H]1CNC[C@@H]1NC(=O)[C@H](C)NC(=O)[C@H](C)NC(=O)[C@H](CCC(N)=O)NC(=O)CNC(=O)[C@H](CCC(=O)O)NC(=O)[C@H](CC(C)C)NC(=O)[C@H](Cc1ccc(O)cc1)NC(=O)[C@H](CO)NC(=O)[C@H](CO)NC(=O)[C@@H](NC(=O)[C@H](CC(=O)O)NC(=O)[C@H](CO)NC(=O)[C@@H](NC(=O)[C@H](Cc1ccccc1)NC(=O)[C@@H](NC(=O)CNC(=O)[C@H](CCC(=O)O)NC(=O)[C@H](C)NC(=O)[C@@H](N)Cc1c[nH]cn1)[C@@H](C)O)[C@@H](C)O)C(C)C)C(=O)N[C@H]1CCC[C@@H]1C(=O)N[C@@H](Cc1c[nH]c2ccccc12)C(=O)N[C@@H](CC(C)C)C(=O)N[C@H](C(=O)N[C@H]1CNC[C@@H]1C(=O)NCC(=O)N[C@@H](CCCNC(=N)N)C(=O)NCC(N)=O)C(C)C [P1] (H-HAEGTFTSDVSSYLEGQAA[X2]EFI[X1]WLV[X2]GRG-NH2) | 0.4 ± 0.1 | 0.5 ± 0.2 | 0.0 ± 0.2 | 0.5 ± 0.2 | −0.1 ± 0.3 | Δlog(τ/KA) βArr1 vs Ca2+ (human GLP-1R [1]): −0.1 ± 0.2; Δlog(τ/KA) βArr1 vs cAMP (human GLP-1R [1]): 0.4 ± 0.1; Δlog(τ/KA) βArr2 vs Ca2+ (human GLP-1R [1]): −0.2 ± 0.2; Emax (human GLP-1R [3]): 108 ± 5%; Emax (human GLP-1R [4]): 85 ± 7% |
| – | 80 ± 8% | 83 ± 5% | weak β-arrestin-2 responses | CC[C@H](C)[C@H](NC(=O)[C@H](Cc1ccccc1)NC(=O)[C@H](CCC(=O)O)NC(=O)[C@H]1CNC[C@@H]1NC(=O)[C@H](C)NC(=O)[C@H](C)NC(=O)[C@H](CCC(N)=O)NC(=O)[C@H]1CCC[C@@H]1NC(=O)[C@H](CCC(=O)O)NC(=O)[C@H](CC(C)C)NC(=O)[C@H](Cc1ccc(O)cc1)NC(=O)[C@H]1CCC[C@@H]1NC(=O)[C@H](CO)NC(=O)[C@@H](NC(=O)[C@H](CC(=O)O)NC(=O)[C@H](CO)NC(=O)[C@@H](NC(=O)[C@H](Cc1ccccc1)NC(=O)[C@@H](NC(=O)CNC(=O)[C@H](CCC(=O)O)NC(=O)[C@H](C)NC(=O)[C@@H](N)Cc1c[nH]cn1)[C@@H](C)O)[C@@H](C)O)C(C)C)C(=O)N[C@@H](C)C(=O)N[C@@H](Cc1c[nH]c2ccccc12)C(=O)N[C@@H](CC(C)C)C(=O)N[C@H](C(=O)N[C@@H](CCCCN)C(=O)NCC(=O)N[C@@H](CCCNC(=N)N)C(=O)NCC(N)=O)C(C)C [P8] (H-HAEGTFTSDVS[X1]YLE[X1]QAA[X2]EFIAWLVKGRG-NH2) | – | 0.7 ± 0.3 | 0.0 ± 0.3 | – | – | reduction in affinity relative to GLP-1 (human GLP-1R [7]): ~ 10 fold |
| – | 73 ± 9% | 107 ± 5% | weak β-arrestin-2 responses | CC[C@H](C)[C@H](NC(=O)[C@H](Cc1ccccc1)NC(=O)[C@H](CCC(=O)O)NC(=O)[C@H]1CNC[C@@H]1NC(=O)[C@H](C)NC(=O)[C@H](C)NC(=O)[C@H](CCC(N)=O)NC(=O)[C@H]1CCC[C@@H]1NC(=O)[C@H](CCC(=O)O)NC(=O)[C@H](CC(C)C)NC(=O)[C@H](Cc1ccc(O)cc1)NC(=O)[C@H]1CCC[C@@H]1NC(=O)[C@H](CO)NC(=O)[C@@H](NC(=O)[C@H](CC(=O)O)NC(=O)[C@H](CO)NC(=O)[C@@H](NC(=O)[C@H](Cc1ccccc1)NC(=O)[C@@H](NC(=O)CNC(=O)[C@H](CCC(=O)O)NC(=O)[C@H](C)NC(=O)[C@@H](N)Cc1c[nH]cn1)[C@@H](C)O)[C@@H](C)O)C(C)C)C(=O)N[C@H]1CCC[C@@H]1C(=O)N[C@@H](Cc1c[nH]c2ccccc12)C(=O)N[C@@H](CC(C)C)C(=O)N[C@H](C(=O)N[C@@H](CCCCN)C(=O)NCC(=O)N[C@@H](CCCNC(=N)N)C(=O)NCC(N)=O)C(C)C [P9] (H-HAEGTFTSDVS[X1]YLE[X1]QAA[X2]EFI[X1]WLVKGRG-NH2) | – | – | −0.1 ± 0.5 | – | – | calcium mobilization, result in words (human GLP-1R [2]; FlpIn CHO human GLP-1R): essentially abolished calcium mobilization; reduction in affinity relative to GLP-1 (human GLP-1R [7]): ~ 10 fold |
